Test results as given in ChEMBL document CHEMBL3769314, “4(5)-Aryl-2-C-glucopyranosyl-imidazoles as New Nanomolar Glucose Analogue Inhibitors of Glycogen Phosphorylase” (ACS Med Chem Lett, 2015).
pKi: −log10 of the molar value. The source made the active and inactive calls. The rule behind the calls is not given here.

What was measured:
[1] = biological target: T1, Glycogen phosphorylase, muscle form (Oryctolagus cuniculus, UniProt P00489)
T1 sequence (P00489 whole entry): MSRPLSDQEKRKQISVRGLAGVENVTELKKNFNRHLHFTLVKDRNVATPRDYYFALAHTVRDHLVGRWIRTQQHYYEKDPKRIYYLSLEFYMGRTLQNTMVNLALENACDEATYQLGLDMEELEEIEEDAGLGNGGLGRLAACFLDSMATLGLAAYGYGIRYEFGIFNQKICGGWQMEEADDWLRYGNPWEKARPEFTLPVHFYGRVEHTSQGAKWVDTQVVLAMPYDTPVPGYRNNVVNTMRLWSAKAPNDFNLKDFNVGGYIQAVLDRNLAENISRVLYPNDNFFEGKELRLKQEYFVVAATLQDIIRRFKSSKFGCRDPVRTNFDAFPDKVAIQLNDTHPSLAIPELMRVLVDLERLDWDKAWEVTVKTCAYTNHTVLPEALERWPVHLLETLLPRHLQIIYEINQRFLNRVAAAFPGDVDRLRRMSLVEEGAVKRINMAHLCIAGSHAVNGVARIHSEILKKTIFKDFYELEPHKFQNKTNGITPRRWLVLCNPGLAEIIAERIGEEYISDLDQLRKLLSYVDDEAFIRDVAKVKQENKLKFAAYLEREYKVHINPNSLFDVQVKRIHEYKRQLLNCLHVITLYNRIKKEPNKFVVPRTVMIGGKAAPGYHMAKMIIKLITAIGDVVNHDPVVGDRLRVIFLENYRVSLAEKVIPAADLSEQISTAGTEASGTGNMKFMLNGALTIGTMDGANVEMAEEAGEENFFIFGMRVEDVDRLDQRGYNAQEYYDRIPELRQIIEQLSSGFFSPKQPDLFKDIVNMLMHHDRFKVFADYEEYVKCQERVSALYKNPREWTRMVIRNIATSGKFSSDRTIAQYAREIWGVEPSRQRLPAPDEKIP

[2] = biological target: T1, Glycogen phosphorylase, muscle form; assay: Competitive inhibition of rabbit muscle glycogen phosphorylase-b using alpha-D-glucose-1-phosphate as substrate by Dixon plot analysis
[3] = biological target: T2, Glycogen phosphorylase, muscle form (Oryctolagus cuniculus) (UniProt P00489); assay: Inhibition of rabbit muscle glycogen phosphorylase-b using alpha-D-glucose-1-phosphate as substrate at 625 uM by Dixon plot analysis
T2 sequence (whole entry): T1 sequence (P00489 whole entry)

Row | Structure (SMILES) | pKi [2] | further results
1 | OC[C@H]1O[C@@H](c2nc3ccccc3s2)[C@H](O)[C@@H](O)[C@@H]1O |  | pKi [1]: 3.64
2 | OC[C@H]1O[C@@H](c2nc(-c3ccc4ccccc4c3)cs2)[C@H](O)[C@@H](O)[C@@H]1O | 3.80 | 
3 | OC[C@H]1O[C@@H](c2nc(-c3ccccc3)cs2)[C@H](O)[C@@H](O)[C@@H]1O | 3.51 | 
4 | OC[C@H]1O[C@@H](c2nc(-c3ccccc3)c[nH]2)[C@H](O)[C@@H](O)[C@@H]1O | 6.55 | 
5 | OC[C@H]1O[C@@H](c2cc(-c3ccccc3)on2)[C@H](O)[C@@H](O)[C@@H]1O |  | inhibition [3]: inactive
6 | OC[C@H]1O[C@@H](c2nc(-c3ccc4ccccc4c3)c[nH]2)[C@H](O)[C@@H](O)[C@@H]1O | 7.51 | 
7 | OC[C@H]1O[C@@H](c2cc(-c3ccccc3)n[nH]2)[C@H](O)[C@@H](O)[C@@H]1O |  | pKi [1]: 3.40
